In US8741967B2, “Use of unsaturated sphingosine compounds as chemotherapeutic agents for the treatment of cancer” (Children's Hospital & Research Center at Oakland, priority 2007, dated 2014):
Entries after “also recorded” stand apart in the source; their conditions may differ.

Assays:
[1] = target: T1, murine Sphingosine Kinase 1 (SK1) (Mus musculus, UniProt Q8CI15); experiment: Phosphorylation by SK1 in extracts of HEK293 cells overexpressing SK1 (HPLC); format: biochemical; settings: cell extracts preincubated for 10 minutes
T1 construct: expressed in transfected cells; host or cells: HEK293
T1 sequence (Q8CI15 whole entry): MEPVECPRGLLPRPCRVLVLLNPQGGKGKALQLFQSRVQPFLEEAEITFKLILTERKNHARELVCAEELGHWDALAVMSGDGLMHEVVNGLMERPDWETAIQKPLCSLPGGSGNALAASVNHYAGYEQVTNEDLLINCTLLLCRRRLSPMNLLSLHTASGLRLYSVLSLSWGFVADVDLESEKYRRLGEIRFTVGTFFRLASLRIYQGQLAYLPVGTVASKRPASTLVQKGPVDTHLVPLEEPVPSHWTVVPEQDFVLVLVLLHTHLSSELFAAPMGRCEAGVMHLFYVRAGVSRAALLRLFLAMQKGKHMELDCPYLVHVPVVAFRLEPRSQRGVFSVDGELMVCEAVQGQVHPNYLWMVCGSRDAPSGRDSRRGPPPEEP
Description: The formed phosphorylated sphingoid base products were measured by HPLC.
In order to test if preincubation with C14-So or C14Δ4:6Sd has an inhibitory effect on the ability of the SK enzyme to phosphorylate the C17-So compound, cell extracts were preincubated for 10 minutes with either C14-So or C14Δ4:6Sd followed by C17-So.

HT29 cells [2] = experiment: Uptake and metabolism in HT29 colon cancer cells (LC-MS); format: in vitro ADME, human; settings: for conversion to the phosphorylated compound in intact cells / uptake rate compared with long chain sphingosine / uptake rate by cells / clearance / metabolism in cells after lipid removal: HT29, 10 μM; for conversion to the phosphorylated compound in intact cells: LC-MS; for uptake rate compared with long chain sphingosine: not shown; for uptake rate by cells: serum-free media; for clearance / metabolism in cells after lipid removal: then incubated without lipids for up to 6 hours
Description: In this example, the uptake and metabolism of C14 sphingadienes was compared with that of synthetic C17 sphingosine (as a substitute for endogenous C18 sphingosine which is already present in cells) and C14 sphingosine (to assess the importance of the second double bond) by HT29 colon cancer cells. Toward that end, cells were incubated with 10 μM sphingadiene in serum-free media, followed by cell harvest at various time points, lipid extraction and analysis by mass spectrometry of SD, SD-phosphate, C14 sphingosine and corresponding S1Ps.
HT29 cells were incubated for 0.25 hours, 0.5 hours and 1 hour in media containing 10 μM C14-So (Δ4) (sphingosine) or C14Δ4:6Sd (see FIG. 9A). HT29 cells were incubated for 1 hour in media containing 10 μM C14-So or C14Δ4:6Sd. Media was then removed and cells were incubated without lipids for 1, 3 and 6 hours (FIG. 9B). At each time point, cells were harvested, lipids were extracted and the cellular contents of C14-So or C14Δ4:6Sd and the corresponding phosphorylated compounds were analyzed by LC-MS.

[3] = target: T2, human Sphingosine-1-Phosphate Lyase (SPL) (Homo sapiens, UniProt O95470); experiment: Cleavage by SPL in HEK 293 cells overexpressing SPL; format: biochemical
T2 construct: expressed in transfected cells; host or cells: HEK 293
T2 sequence (O95470 1-568): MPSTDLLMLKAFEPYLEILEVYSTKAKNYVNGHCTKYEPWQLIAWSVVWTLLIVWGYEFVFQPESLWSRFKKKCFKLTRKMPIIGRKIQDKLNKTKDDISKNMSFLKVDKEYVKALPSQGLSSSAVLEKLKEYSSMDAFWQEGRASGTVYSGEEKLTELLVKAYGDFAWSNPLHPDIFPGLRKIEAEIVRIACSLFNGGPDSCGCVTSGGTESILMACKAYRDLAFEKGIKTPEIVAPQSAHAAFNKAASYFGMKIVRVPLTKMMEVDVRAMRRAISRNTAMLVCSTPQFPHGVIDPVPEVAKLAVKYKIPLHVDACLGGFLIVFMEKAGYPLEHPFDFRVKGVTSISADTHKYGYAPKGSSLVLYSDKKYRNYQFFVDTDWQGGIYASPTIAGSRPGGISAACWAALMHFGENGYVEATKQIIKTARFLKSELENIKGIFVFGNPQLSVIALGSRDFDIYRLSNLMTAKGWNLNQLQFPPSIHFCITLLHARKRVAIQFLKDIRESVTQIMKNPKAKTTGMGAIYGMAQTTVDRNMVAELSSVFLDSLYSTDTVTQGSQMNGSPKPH

HT29 cells [4] = experiment: Viability of HT29 colon cancer cells; format: cell-based, human
Description: (§1) The human colon cancer cell lines, HT29, SW480, HCT116 and DLD1 were treated with 10 μM C14Δ4:6Sd (also referred to herein as 2-aminotetradeca-4,6-diene-1,3-diol) and viability was determined at 24 hours.
HT29 cells were then incubated with various sphingadiene compounds and viability was determined at 24 hours.
HT29 cells were incubated with various concentrations of C14Δ4:6Sd and viability was determined at 24 hours or incubated with 10 μM C14Δ4:6Sd and viability was determined at various time points.
In a further experiment, HT29 cells were treated with the PI3K inhibitor wortmannin and various concentrations of C14Δ4:6Sd and viability was determined at 24 hours by MTT assay. The results confirmed synergistic inhibition of […] by C14Δ4:6Sd and wortmannin (see FIG. 8C).

SK = experiment: Competition studies with sphingosine and SD on sphingosine kinase; settings: not shown, listed as C14 SD
4EBP [5] = experiment: Phosphorylated 4EBP in polyps of ApcMin/+ mice by western blotting; format: in vivo; settings: gavage 2.5 mg/day, day 10
Description: (§2) Murine experiments were performed to investigate the in vivo effect of C14Δ4:6Sd on the development of polyps in intestinal tissue using an established animal model system having an inherited genetic defect underlying spontaneous multiple intestinal neoplasia (Min) (Polakis, 1997 Biochim Biophys. Acta. 1332:F127; Kucherlapati et al., 2001 Semin. Canc. Biol. 11:219; Sansom et al., 2004 Genes Dev. 18:1385). Ten 12 week-old male ApcMin/+ mice (available from Jackson Laboratory, Bar Harbor, Me.) were administered by gavage 2.5 mg/day C14Δ4:6Sd and ten mice received vehicle control. Mice were euthanized by CO2 asphyxiation and intestinal tissues harvested at day 10. Gross polyps were counted and measured (diameter). […] Polyps were further analyzed for phosphorylated 4EBP by western blotting and it was confirmed that sphingadienes inhibited 4EBP phosphorylation in vivo.

DLD1 cells = experiment: Viability of DLD1 colon cancer cells; format: cell-based; settings: Homo sapiens, DLD-1; DLD1, 10 μM, 24 hours; read-out: viability, % of controls
Description: as §1

SW480 cells [6] = experiment: Autophagy: GFP-LC3 fluorescence microscopy in SW480 cells; format: cell-based, human; settings: SW480 transfected with GFP-LC3, 5 μM, 4 h
Description: (§3) Autophagy is a cell process used to degrade components of the cytoplasm and functions as a cell survival mechanism during nutrient deprivation (P. Codogno and A J Meijer, Cell Death Differ. 2005 November; 12 Suppl 2:1509-18). […] In order to further investigate this phenomenon, LC3 (microtubule associated protein 1 light chain 3) was used as a marker for this process.
(§4) In one experiment, SW480 cells were transfected with a GFP-LC3 construct and treated for 4 h with 5 μM C14Δ4:6Sd. […] In another experiment, SW480 cells transfected with myr-Akt were treated with various concentrations of C14Δ4:6Sd and the amount of LC3 activation (shift from LC3-1 to LC3-2) was verified by western blotting.

protein synthesis = experiment: Translational activity of HT29 cell cytosol (DUAL-LUCIFERASE Reporter Assay System); format: cell-based, human; settings: HT29, 10 μM, 6 hours
Description: (§5) HT29 cells were incubated for 6 hours with 10 μM C14Δ4:6Sd and the translational activity of the cell cytosol was measured with the DUAL-LUCIFERASE® Reporter Assay System (Promega, Madison, Wis.). […] In another experiment, HT29 cells were pretreated with inhibitors of p38 (SB20350), MEK (PD98059), PI3K (LY294002) and JNK (JNK inhibitor 2) and caspase 3 activity was determined following an 18 hour incubation with 10 μM C14Δ4:6Sd.

Akt = Akt phosphorylation by western blotting in HT29 cells; format: cell-based, human; settings: HT29, 10 μM, 0.5 to 24 hours
Description: (§6) To address the possibility that sphingadienes might promote cell death by inhibiting the PI3K/AKT pathway, the effect of sphingadienes on phosphorylation of AKT, PTEN, and the AKT substrate 4EBP, which is a regulator of protein translation, was evaluated using immunoblotting of whole cell extracts.
(§7) HT29 cells were incubated with 10 μM C14Δ4:6Sd for 0.5, 1, 3, 6 and 24 hours and the level of Akt and 4EBP phosphorylation was evaluated at each time point by western blotting. […] The ratios of phosphorylated Akt to total Akt and of phosphorylated 4EBP to total 4EBP, were quantified by densitometry using ImageJ software (ImageJ is a public domain Java image processing program inspired by NIH Image; available at rsbweb.nih.gov/ij/index.html) and are shown in FIG. 7A and FIG. 7B, respectively.
(§8) In an additional experiment, HT29 cells were treated for various time periods with 10 μM C14Δ4:6Sd or C18Δ4:8Sd and the level of phosphorylation of Akt and 4EBP was evaluated by western blotting at 0.5, 1.0 and 3.0 hours. The results confirmed that sphingadienes inhibited phosphorylation of Akt and 4EBP, even at 0.5 hours of exposure, thus inhibiting signaling through Akt and 4EBP.

ApcMin/+ mice = experiment: Intestinal polyps in ApcMin/+ mice; format: in vivo; settings: gavage 2.5 mg/day, day 10, versus vehicle control
Description: as §2

4EBP [7] = experiment: 4EBP phosphorylation by western blotting in HT29 cells; format: cell-based, human; settings: HT29, 10 μM, 0.5 to 24 hours
Description: as §6, §7, §8

4EBP [8] = experiment: 4EBP phosphorylation by western blotting in SW480 cells; format: cell-based, human; settings: SW480, 10 μM, up to 5 hours
HT29 cells [9] = experiment: Caspase-3 activity assay (apoptosis) in HT29 colon cancer cells; format: cell-based, human
Description: To assess the effect of C14 sphingadienes on colon cancer cell viability, HT29, DLD1 and SW480 colon cancer cells (available from American Type Culture Collection (ATCC), Manassas, Va.) were propagated in DME-H21 plus 10% serum until ⅔ confluent. Media was then replaced with serum-free media containing 10 μM sphingadienes (SD). After 24 hours, cells were harvested, and whole cell extracts were prepared for caspase-3 activity assays. Caspase-3 activity was determined using substrate Ac-DEVD-pNA (Biomol, Plymouth Meeting, Pa.) as described (Oskouian, B., et al., Proc Natl Acad Sci USA 103: 17384-17389, 2006).
In an additional experiment, HT29 cells were treated with 10 μM sphingoid bases or ceramides and caspase-3 activity was determined at 24 hours.
HT29 cells transfected with constitutively active myristoylated Akt (myr-Akt) were treated with 10 μM C14Δ4:6Sd and caspase 3 activity was determined at 24 hours.
as §5

HCT116 cells = experiment: Viability of HCT116 colon cancer cells; format: cell-based; settings: Homo sapiens, HCT-116; HCT116, 10 μM, 24 hours; read-out: viability, % of controls
Description: as §1

LC3 = LC3 activation (LC3-1 to LC3-2 shift) by western blotting in SW480 cells transfected with myr-Akt; format: cell-based, human; settings: various concentrations
Description: as §3, §4

SW480 cells [10] = experiment: Viability of SW480 colon cancer cells; format: cell-based; settings: Homo sapiens; SW480, 10 μM, 24 hours; read-out: viability, % of controls
Description: as §1

[11] = HT29, various concentrations, 24 hours
[12] = HT29 pretreated with inhibitor, 18 hour incubation with 10 μM

CCCCCCCCCCCCC/C=C/[C@@H](O)[C@@H](N)CO [C14-So, reference compound]
inhibitory effect on phosphorylation of C17-So by SK [1]: no inhibitory effect was observed | conversion to the phosphorylated compound in intact cells (HT29 cells [2]): efficiently phosphorylated | uptake rate compared with long chain sphingosine (HT29 cells [2]): faster | uptake rate by cells (HT29 cells [2]): taken up at equal rates | clearance / metabolism in cells after lipid removal (HT29 cells [2]): completely metabolized | clearance / metabolism in cells after lipid removal (HT29 cells [2]; listed as C14 sphingosine): cleared from the cells in hours; also recorded: rapidly metabolized

CCCCCCCCCC=CC(O)C(N)COP(=O)(O)O (centres unmarked) [C14So-1P]
processing of C17So-1P following preincubation [3]: No significant difference

CCCCCCC/C=C/C=C/C(O)C(N)CO (centres unmarked) [C14Δ4:6Sd, 2-aminotetradeca-4,6-diene-1,3-diol]
dose and time dependence of cytotoxicity (HT29 cells [4]; HT29, various concentrations at 24 hours or 10 μM at various time points): dose- and time-dependent | cytotoxicity (viability) (HT29 cells [4]; [11]): cytotoxic | viability in combination with PI3K inhibitor wortmannin (HT29 cells [4]; HT29, various concentrations, 24 hours, MTT assay): synergistic | viability at 10 µM (HT29 cells [4]; Homo sapiens, HT-29, HT29, 10 μM, 24 hours, read-out: viability, % of controls): < 50% | inhibition of SK (SK): inhibit SK | inhibitory effect on phosphorylation of C17-So by SK [1]: no inhibitory effect was observed | 4EBP phosphorylation in polyps in vivo (4EBP [5]): inhibited | viability at 10 µM (DLD1 cells): < 50% | autophagosome formation (GFP-LC3) (SW480 cells [6]): autophagosome formation | Luciferase activity (translational activity, protein synthesis) (protein synthesis): reduced by more than half | phosphorylation of Akt (Akt): inhibited | size (diameter) of intestinal polyps (ApcMin/+ mice): reduced the size | number of intestinal polyps (ApcMin/+ mice; p<0.0027): significantly reduced | phosphorylation of 4EBP (4EBP [7]): inhibited | conversion to the phosphorylated compound in intact cells (HT29 cells [2]; listed as C14 SDs): not converted to SD-phosphates | uptake rate compared with long chain sphingosine (HT29 cells [2]): faster | uptake rate by cells (HT29 cells [2]): taken up at equal rates | clearance / metabolism in cells after lipid removal (HT29 cells [2]): remains unaltered | clearance / metabolism in cells after lipid removal (HT29 cells [2]; listed as C14 SDs): remained in the cells for many hours | time remaining in cells after lipid removal (HT29 cells [2]; HT29, FIG. 3): 6 h | phosphorylation of 4EBP (4EBP [8]): reduced phosphorylation | caspase 3 activity in combination with JNK inhibitor (JNK inhibitor 2) (HT29 cells [9]; [12]): not synergistic | caspase 3 activity in combination with MEK inhibitor (PD98059) (HT29 cells [9]; [12]): not synergistic | caspase 3 activity in combination with PI3K inhibitor LY294002 (HT29 cells [9]; [12]): synergistic | caspase 3 activity in combination with p38 inhibitor (SB20350) (HT29 cells [9]; [12]): not synergistic | caspase 3 activity / cell death in HT29 cells transfected with myr-Akt (HT29 cells [9]; constitutively active myristoylated Akt, 10 μM, 24 hours): protected against sphingadiene-induced cell death | viability at 10 µM (HCT116 cells): > 50% | LC3 activation (shift from LC3-1 to LC3-2) (LC3): autophagic activity | viability at 10 µM (SW480 cells [10]): < 50%

CCCCCC=CCCC=CC(O)C(N)CO (centres unmarked) [C14Δ4:8Sd]
cytotoxicity (viability) (HT29 cells [4]; [11]): cytotoxic

CCCCCCCCCCC/C=C/C=C/C(O)C(N)CO (centres unmarked) [C18Δ4:6Sd]
cytotoxicity (viability) (HT29 cells [4]; [11]): cytotoxic

CCCCCCCCC/C=C/CC/C=C/C(O)C(N)CO (centres unmarked) [C18Δ4:8Sd]
cytotoxicity (viability) (HT29 cells [4]; [11]): cytotoxic | phosphorylation of Akt (Akt): inhibited | phosphorylation of 4EBP (4EBP [7]): inhibited
